# Measurements: patent publication KR20170076438A, “필리게닌을 포함하는 피부상태 개선용 조성물” (주식회사 엘지생활건강, priority 2015, dated 2017)
# Tests used:
# [1] = Anti-glycation assay (L-arginine and glucose, absorbance at 420 nm); assay type: biochemical; details: pH 7.4, 70 ℃, 4 h, 0.1 M glucose
# [2] = system: B-16 mouse melanoma cell [쥐의 멜라노마 세포(B-16 mouse melanoma cell)]; experiment: Total melanin amount in B-16 mouse melanoma cells; assay type: cell-based; details: 3 days; for melanin production amount: absorbance at 400 nm per 1×10^6 cells, DMSO control 0.33
# [3] = system: nitric oxide (NO) production in RAW264.7 cells [RAW264.7 세포주, Nitric oxide(NO)]; experiment: NO production inhibition in LPS-stimulated RAW264.7 cells (GRIESS method); assay type: cell-based; details: Mus musculus, LPS 1 μg, 24 h, 540 nm, read-out: NO production inhibition rate
# [4] = system: type I collagen [제1형 콜라겐(type I collagen)]; experiment: Type I collagen synthesis in human-derived fibroblasts (PICP EIA kit); assay type: cell-based; details: 48 h culture, n=4; for type I collagen synthesis amount: negative control 150.2; for increase rate (type I collagen synthesis): relative to untreated control
# [5] = molecular target: T1, elastase [엘라스테이즈(Elastase)] (Homo sapiens, UniProt P08246); experiment: Elastase activity inhibition (human leukocyte elastase, MeOSuc-Ala-Ala-Pro-Val-pNA); assay type: biochemical; details: for enzyme activity: slope of absorbance at 405 nm vs time, room temperature, 20 min, n=3, DMSO control 10.4
# T1 construct: 엘라스테이즈(Elastase)는 사람의 백혈구 세포로부터 유래한 엘라스테이즈를 사용하였고; from tissue; host or cells: human leukocytes (사람의 백혈구 세포)
# T1 sequence (P08246 30-267): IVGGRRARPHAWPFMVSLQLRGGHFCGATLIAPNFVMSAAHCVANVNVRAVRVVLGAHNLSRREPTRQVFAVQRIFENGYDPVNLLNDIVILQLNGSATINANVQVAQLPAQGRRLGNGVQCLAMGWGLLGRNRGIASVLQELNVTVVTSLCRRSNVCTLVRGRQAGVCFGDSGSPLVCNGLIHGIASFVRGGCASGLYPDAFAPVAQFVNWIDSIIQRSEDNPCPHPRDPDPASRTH
# [6] = Mus musculus, 72 h, 10 ppm, relative to control, read-out: increase rate (total melanin)
# [7] = pH 7.5, read-out: inhibition rate (elastase)
smiles,measurement,setting,value
"N=C(N)NN [Aminoguanidine, reference compound]",inhibition rate (glycation),[1]; 55 ppm,54.89%
"C=C[C@@]1(C)CC(=O)[C@]2(O)[C@@]3(C)[C@@H](O)CCC(C)(C)[C@@H]3[C@H](O)[C@H](OC(C)=O)[C@@]2(C)O1 [Forskolin, reference compound]",melanin production amount,[2]; 10 ppm,0.792 abs
same,activation at 10 ppm,[2]; [6],140%
"CNC(=N)NCCC[C@H](N)C(=O)O [L-NMMA, L-NG-Monomethylarginine, reference compound]",inhibition at 10 ppm,[3],41%
"O=C1O[C@H]([C@@H](O)CO)C(O)=C1O [비타민 C, reference compound]",type I collagen synthesis amount,[4]; 52.85 ppm (52.85 ㎍/ml),246.8 ng/mL
same,increase rate (type I collagen synthesis),[4]; 52.85 ppm (52.85 ㎍/ml),64.3%
"COc1cc([C@H]2OC[C@H]3[C@@H]2CO[C@H]3c2ccc(OC)c(OC)c2)ccc1O [화학식1의 화합물, phillygenin]",type I collagen synthesis amount,[4]; 1 ppm,187.6 ng/mL
same,increase rate (type I collagen synthesis),[4]; 1 ppm,24.9%
same,type I collagen synthesis amount,[4]; 10 ppm,234.7 ng/mL
same,increase rate (type I collagen synthesis),[4]; 10 ppm,56.3%
same,inhibition at 1 ppm,[3]; 1 ppm,17.9%
same,inhibition at 10 ppm,[3],20.6%
same,inhibition at 100 ppm,[3]; 100 ppm,51.7%
same,inhibition rate (glycation),[1]; 25 ppm,32.68%
same,inhibition rate (glycation),[1]; 50 ppm,55.64%
same,enzyme activity,[5]; 10 ppm,3.9
same,enzyme activity,[5]; 20 ppm,3.5
same,inhibition at 10 ppm,[5]; [7],62.5%
same,inhibition at 20 ppm,[5]; [7],66.3%
same,melanin production amount,[2]; 1 ppm,0.359 abs
same,melanin production amount,[2]; 10 ppm,0.403 abs
same,activation at 1 ppm,"[2]; Mus musculus, 72 h, 1 ppm, relative to control, read-out: increase rate (total melanin)",8.79%
same,activation at 10 ppm,[2]; [6],22.1%
